Test results: US20240300997A1, “PROTEIN FOLDING AGENT” (TOHOKU UNIVERSITY, priority 2021, published 2024)

Columns and labels:
[1] = target: T1, reduced and denatured β2m (β2-microglobulin) (Homo sapiens, UniProt P61769); assay: Disulfide bond introduction ability into reduced and denatured β2m (reversed-phase HPLC); type: biochemical; conditions: 1 mM thiol compound and 0.2 mM disulfide compound
T1 construct: made in house; host or cells: E. coli
Description: β2m was expressed as a recombinant by an E. coli expression system, and the collected cells were suspended in lysate A (50 mM Tris-HCl, pH 8.1; 300 mM NaCl), followed by ultrasonic disintegration. The fraction obtained after centrifugation was incubated in the presence of 8 M urea and 20 mM DTT at pH 8.0 and 50° C. for 3 hours, followed by purification by reversed-phase column chromatography (Hitachi) using a Cosmosil 5C18-AR-II column. • Reference Document 1: M. Okumura, H. Kadokura, S. Hashimoto, K. Yutani, S. Kanemura, T. Hikima, Y. Hidaka, L. Ito, K. Shiba, S. Masui, D. Imai, S. Imaoka, H. Yamaguchi, K. Inaba, Inhibition of the functional interplay between endoplasmic reticulum (ER) oxidoreduclin-1α (Ero1α) and protein-disulfide isomerase (PDI) by the endocrine disruptor bisphenol A. J Biol Chem. 2014 289(39): 27004-27018. • Reference Document 2: J. S. Weissman, P. S. Kim, Reexamination of the folding of BPTI: predominance of native intermediates. Science 1991 253 (5026): 1386-93. • Reference Document 3: M. M. Lyles, H. F. Gilbert Catalysis of the oxidative folding of ribonuclease A by protein disulfide isomerase: dependence of the rate on the composition of the redox buffer. Biochemistry. 1991 30 (3): 613-9.
A buffer having the following combinations of 1 mM of a thiol compound and 0.2 mM of a disulfide compound (50 mM Tris-HCl, pH 7.5; 300 mM NaCl) was incubated at 30° C. with 10 μM of the reduced and denatured β2m prepared in the above 8), followed by a folding reaction.
The reaction solution was dispensed over time, followed by adding an equal amount of 6 M guanidine hydrochloric acid and 1.5 M HCl, and the disulfide bond introduction reaction was quenched. In order to identify the molecular species in the reaction solution, the resultant was subjected to reversed-phase HPLC, and an oxidation type (N) and a reduction type (R) of β2m were analyzed (FIG. 4A to FIG. 4C and FIG. 5). […]
Measurement and analysis conditions of the reversed-phase HPLC are shown below. 5C18-AR2 column (4.6×150 mm; NACALAI TESQUE) was used as a column, and an absorbance at 229 nm was detected. […]

native type β2m = target: T2, native type β2m (Homo sapiens, UniProt P61769); assay: β2m aggregation experiment by heating; type: biochemical; conditions: 1 mM thiol compound; for appearance of the solution after cooling (before centrifugation): 10 µM native type β2m, heated from 25° C. to 50° C., 10 minutes, cooled to 25° C., FIG. 8; for residual rate of the native type β2m in the supernatant liquid: after heating to 50° C. and centrifugation, absorbance at 280 nm, FIG. 9
T2 construct: made in house; host or cells: E. coli
Description: A buffer containing 10 µM of native type β2m (50 mM Tris-HCl, pH 7.5; 300 mM NaCl) was heated from 25° C. to 50° C., equilibrated for 10 minutes when the temperature reached 50° C., and then cooled to 25° C. For a supernatant liquid of the fraction obtained after centrifugation, a residual rate of the native type β2m in the supernatant liquid was measured by measuring an absorbance at 280 nm using a spectrophotometer.
For a buffer containing 10 µM of native type β2m (50 mM Tris-HCl, pH 7.5; 300 mM NaCl), 1 mM of the following thiol compound was added, and the obtained mixture was heated from 25° C. to 50° C., equilibrated for 10 minutes when the temperature reached 50° C., and then cooled to 25° C.
For a supernatant liquid of the fraction obtained after centrifugation, a residual rate of the native type β2m in the supernatant liquid was measured by measuring an absorbance at 280 nm using a spectrophotometer.

| Compound | reaction rate constant of the disulfide bond introduction reaction (pseudo-first-order reaction) [1] | appearance of the solution after cooling (before centrifugation) (native type β2m) | residual rate of the native type β2m in the supernatant liquid (native type β2m) |
| --- | --- | --- | --- |
| NCCNCCSSCCNCCN [LDA-SS] | 6.96×10^−4 | – | – |
| NCCNCCS [LDA-SH, 2-((2-aminoethyl)amino)ethane-1-thiol] | – | transparent | higher than that in the case of no additive and in the case of GSH |
| oxidized glutathione [GSSG, reference compound] | 1.12×10^−4 | – | – |

Second part, led by results:

| reaction rate constant of the disulfide bond introduction reaction (pseudo-first-order reaction) [1] | appearance of the solution after cooling (before centrifugation) (native type β2m) | Compound | residual rate of the native type β2m in the supernatant liquid (native type β2m) |
| --- | --- | --- | --- |
| 3.59×10^−2 | – | NCC(CN)SSC(CN)CN [BDA-SS] | – |
| – | transparent | NCC(S)CN [BDA-SH, 1,3-diaminopropane-2-thiol] | higher than that in the case of no additive and in the case of GSH |
